Assay results taken from article PMC6069857, “Effects of novel HDAC inhibitors on urothelial carcinoma cells” (Clinical Epigenetics, 2018).

Assays:
Type in all cases: cell-based, human
UCCs = experiment: Western blot of acetylated α-tubulin and histones H3/H4; settings: 48 h; 19i 1 or 2 μM, SAHA 2.5 μM
Method: Total protein extraction, purification of histones, and Western blot analysis were performed as previously described. Briefly, cells were incubated for 30 min on ice in RIPA-buffer (150 mM NaCl, 1% Triton X-100, 0.5% desoxycholate, 1% Nonidet P-40, 0.1% SDS, 1 mM EDTA, 50 mM TRIS (pH 7.6)) containing 10 μl/ml protease inhibitor cocktail (#P-8340, Sigma Aldrich, St. Louis, MO). Histones were extracted for detection of histone H3 and H4 acetylation by a modified published protocol employing sulfuric acid extraction and TCA-precipitation. Concentrations of total protein and histones were determined by BCA protein assay (Thermo Fisher Scientific, Carlsbad, CA). Subsequently, total cell proteins (15 μg) or extracted histones (2 μg) were separated by SDS-PAGE (total proteins 10–12% gels, histones 15% gels), transferred to PVDF membranes (Merck Millipore, Berlin, Germany), and were incubated with primary antibodies (at RT for 1 h or 4 °C overnight, see Additional file 3: Table S2) following blocking with 5% non-fat milk or BSA (bovine serum albumin) in TBST (150 mM NaCl, 10 mM TRIS, pH 7.4 and 0.1% Tween-20). For signal detection, membranes were incubated with a suitable horseradish peroxidase-conjugated secondary antibody (see Additional file 2: Table S1) at RT for 1 h and signals were visualized by SuperSignal™ West Femto (Thermo Fisher Scientific, Carlsbad, CA) and WesternBright Quantum kit (Biozym, Hessisch Oldendorf, Germany).

VM-CUB1 [1] = experiment: High-content analysis-based fluorescent live/dead assay; settings: VMCub1, HCA, 72 h
Method: (§1) Live and dead cells were assayed by high-content analysis (HCA). […] After 72 h of treatment, cells were stained with a mixture of Hoechst 33342 (Sigma Aldrich, St. Louis, MO), calcein AM (Merck Millipore, Germany), and propidium iodide (Santa Cruz Biotechnology, Heidelberg) for cell nuclei, live and dead cells. The staining solution was replaced by PBS after 20 min. Images were acquired using ArrayScan XTI Live High Content Platform (Thermo Fisher Scientific Inc., USA) using excitation filters of 386, 485, and 560 nm for Hoechst 33342, calcein AM, and propidium iodide, respectively. The results were analyzed using HCS Studio Cellomics Scan (Thermo Fisher Scientific Inc., USA).

UM-UC-3 [2] = experiment: as above; settings: UM-UC-3, HCA, 72 h
Method: as §1

639-V [3] = experiment: as above; settings: HCA, 72 h
Method: as §1

HBLAK [4] = experiment: as above; settings: HCA, 72 h
Method: as §1

VM-CUB1 [5] = experiment: MTT viability assay (CC50)
Method: (§2) Further experiments were performed in VM-CUB1 and UM-UC-3 cells overexpressing HDAC4 (see below). Standard UCCs were obtained from the DSMZ (Braunschweig, Germany) and Dr. H.B. Grossmann HB (Houston, USA). For comparison, we investigated the spontaneously immortalized normal human bladder cell line HBLAK (provided by CELLnTEC, Bern, Switzerland) and the immortalized human embryonic kidney cell line HEK-293 (provided by Dr. V. Kolb-Bachofen, Duesseldorf, Germany). Cells were cultured and treated in DMEM GlutaMAX-I (Gibco, Darmstadt, Germany; UCCs and HEK-293) supplemented with 10% fetal calf serum (Biochrom, Berlin, Germany), except for HBLAK cultured in CnT-Prime Epithelial Culture Medium (CELLnTEC, Bern, Switzerland; HBLAK), at 37 °C and 5% CO2. STR (short tandem repeat) profiling via DNA fingerprint analysis was performed for all cell lines. Primary cultures of normal urothelial cells (UP) were established from healthy ureters removed during tumor nephrectomy and cultured as described. These cultures were used with informed consent of the patients and approval by the Ethics Committee of the Medical Faculty of the Heinrich-Heine-University, study number 1788. All inhibitors were dissolved in DMSO and stored as 10 mM stocks. […] The pan-HDACi inhibitor SAHA previously studied in detail was used for comparison. Solvent control cells were treated with equal amounts of DMSO.
(§3) For the determination of cellular mean cytotoxic concentration (CC50), UCCs, non-malignant control cells, and HDAC4-overexpressing clones were seeded in a 96-well format and treated once with a range of defined concentrations of the HDAC inhibitors. After 72 h, viability was quantified by NAD(P)H-dependent 3-(4,5-dimethylthiazol-2-yl)-2,5-diphenyltetrazolium bromide dye reduction assay (MTT, Sigma Aldrich, St. Louis, MO). CC50 values were estimated from three independent experiments by non-linear regression analysis (four-parameter logistic equation) using Prism 4.0 (Graph Pad) or Origin 8.0 (Origin Lab, Northhampton, GB). For time-dependent proliferation experiments, viability of untreated or inhibitor-treated cells was measured after 24, 48, and 72 h.

UM-UC-3 [6] = experiment: MTT viability assay (CC50); settings: UM-UC-3, MTT
Method: as §2, §3

639-V [7] = experiment: MTT viability assay (CC50)
Method: as §2, §3

HBLAK [8] = experiment: MTT viability assay (CC50); settings: 72 h of incubation
Method: as §2, §3

[9] = system: UC cell lines (VM-CUB1, UM-UC-3, 639-V); experiment: MTT viability assay, UC cell lines taken together; settings: MTT and HCA live/dead assays
Method: Further experiments were performed in VM-CUB1 and UM-UC-3 cells overexpressing HDAC4 (see below). Standard UCCs were obtained from the DSMZ (Braunschweig, Germany) and Dr. H.B. Grossmann HB (Houston, USA). For comparison, we investigated the spontaneously immortalized normal human bladder cell line HBLAK (provided by CELLnTEC, Bern, Switzerland) and the immortalized human embryonic kidney cell line HEK-293 (provided by Dr. V. Kolb-Bachofen, Duesseldorf, Germany). Cells were cultured and treated in DMEM GlutaMAX-I (Gibco, Darmstadt, Germany; UCCs and HEK-293) supplemented with 10% fetal calf serum (Biochrom, Berlin, Germany), except for HBLAK cultured in CnT-Prime Epithelial Culture Medium (CELLnTEC, Bern, Switzerland; HBLAK), at 37 °C and 5% CO2. […]
as §3, with “CC50 values were estimated from three independent experiments by non-linear regression analysis (four-parameter logistic equation) using Prism 4.0 (Graph Pad) or Origin 8.0 (Origin Lab, Northhampton, GB).” left out

Q: How did the “acetylation of α-tubulin” value (UCCs) turn out when O=C(CCCCCCC(=O)Nc1ccccc1)NO [SAHA, suberoylanilide hydroxamic acid, reference compound] was run?
A: Its value is “strongly induced”.

Q: With O=C(NCC1(c2nc(-c3ccccc3)cs2)CCOCC1)c1cccc(-c2noc(C(F)(F)F)n2)c1 [TMP269] as the compound, how does the CC50 (VM-CUB1 [1]) read?
A: Its CC50 is 20.1 µM.

Q: And the CC50 (UM-UC-3 [2])?
A: Its CC50 is 14.6 µM.

Q: What about the CC50 (639-V [3]) of the same compound?
A: Its CC50 is 16.5 µM.

Q: And the CC50 (HBLAK [4])?
A: The CC50 was 10.6 µM.

Q: What about the CC50 (VM-CUB1 [5]; VM-CUB1, MTT, 72 h of incubation) of the same compound?
A: Its CC50 is 45.9 µM.

Q: And the CC50 (VM-CUB1 [5]; VMCub1, MTT, 24 h)?
A: The CC50 was 115 µM.

Q: And the CC50 (VM-CUB1 [5]; VMCub1, MTT, 48 h)?
A: Its CC50 is 115 µM.

Q: And the CC50 (UM-UC-3 [6]; 24 h)?
A: The CC50 was 110 µM.

Q: And the CC50 (UM-UC-3 [6]; 48 h)?
A: The CC50 was 73.8 µM.

Q: And the CC50 (UM-UC-3 [6]; 72 h of incubation)?
A: The CC50 was 32.3 µM.

Q: And the CC50 (639-V [7]; 24 h)?
A: Its CC50 is 96.1 µM.

Q: And the CC50 (639-V [7]; 48 h)?
A: The CC50 was 65.8 µM.

Q: What about the CC50 (639-V [7]; 72 h of incubation) of the same compound?
A: The CC50 was 39.4 µM.

Q: And the CC50 (HBLAK [8])?
A: The CC50 was 48.7 µM.

Q: What about the “concentrations effective on / impeding proliferation of UC cell lines” value [9] of the same compound?
A: Its value is > 10 µM.
